Data: paper PMC12406681 (Antimicrobial Agents and Chemotherapy, 2025)
Where “and” joins values, the source holds several entries; their conditions need not be identical. Equal values may be shown once. Read-outs that look alike come from different tables or passages of the source.

Tests used:
CEN of orthobunyaviruses = system: CEN of orthobunyaviruses; design: method as in PMID 32766680, PMID 38656310; conditions: cited from earlier work
LACV [1] = test: microbe, parasite or virus in culture; type: cell-based, La Crosse virus
LACV [2] = test: microbe, parasite or virus in culture; type: cell-based, La Crosse virus; remark: listed apart in the source
[3] = Cell viability assay (MTT), uninfected Vero cells; type: cell-based; conditions: African green monkey, mean ± SD
Experimental: (§1) CPE-based antiviral activity and cell viability assays were conducted as previously reported ([23]), with several modifications. Vero and SH-SY5Y cells were treated with serially diluted compounds in minimum essential medium (MEM) containing 2% FBS. In the antiviral evaluation, the cells were infected with LACV (40–80 plaque-forming unit [PFU]/well for Vero and 300–4,000 PFU/well for SH-SY5Y cells). In the cell viability assays, the cells treated with the compounds were cultured in the absence of viral infection. After 2 or 3 days of culture, the cells were stained with 3-(4,5-dimethylthiazol-2-yl)-2,5-diphenyltetrazolium bromide (MTT). The antiviral activity (50% effective concentration values, EC50) was calculated using Prism version 9.5.1 (GraphPad, La Jolla, CA, USA) using the four-parameter logistic method. Non-infected and non-treated cells were defined as the 100% inhibition control, while LACV-infected and non-treated cells were defined as the 0% inhibition control. Cell viability (50% cytotoxicity concentration values, CC50) was calculated using the MTT assay. Non-treated control cells were defined as the 100% cell viability control, while wells containing culture medium without cells were defined as the 0% cell viability control. Selective Index (SI50) was calculated as the ratio of CC50 to EC50 (CC50/EC50).

[4] = Cell viability assay (MTT), uninfected SH-SY5Y cells; type: cell-based; conditions: human, MTT at 3 dpi, mean ± SD
Experimental: as §1

LACV passage control WT [5] = test: microbe, parasite or virus in culture; type: cell-based; conditions: La Crosse virus, Vero
LACV passage control WT [6] = test: microbe, parasite or virus in culture; type: cell-based; conditions: La Crosse virus, SH-SY5Y
LACV [7] = type: cell-based, La Crosse virus
[8] = type: in vivo; conditions: uninfected mice; s.c. once daily for 7 days
[9] = system: Bunyaviruses, including LACV; design: method as in PMID 36037386; conditions: cited from earlier work

SMILES | Binding to CEN and inhibition of enzymatic activity (CEN of orthobunyaviruses) | EC50 lower than for T-705 and RBV (LACV [1]) | Inhibition of LACV-induced cell death compared with other CEN inhibitors (LACV [1]) | Antiviral activity compared with other CEN inhibitors (LACV [2]) | EC50 (LACV [2]) | EC50 (LACV [2]; La Crosse virus, SH-SY5Y) [µM] | CC50 [3] [µM] | CC50 at 3 days [4] [µM] | EC50 (LACV passage control WT [5]) [µM] | EC50 (LACV passage control WT [6]) [µM] | Viral RNA expression, entry-stage treatment (LACV [7]) | Body weight changes versus vehicle-treated mice [8] | Susceptibility of bunyaviruses among the four CEN inhibitors [9] | EC50 (LACV [1]; La Crosse virus, Vero) [µM] | EC50 (LACV [1]) [µM]
O=C1c2c(O)c(=O)ccn2N([C@@H]2c3ccccc3SCc3c2ccc(F)c3F)[C@@H]2COCCN12 [BXA, baloxavir acid] | binds to the CEN of orthobunyaviruses and inhibits its enzymatic activity |  |  |  |  |  |  |  |  |  |  |  |  |  | 
CC(C)N1CN(C2c3ccccc3CCc3ccccc32)n2cc(C(=O)O)c(=O)c(O)c2C1=O [CAPCA-1, carbamoyl pyridone carboxylic acid (CAPCA)-1] |  | more than 50 fold | inhibited LACV-induced cell death at lower concentrations than the other CEN inhibitors | antiviral activity comparable to that of CAPCA-4 and demonstrated higher activity than CAPCA-2, -3, and -5 | 0.69 µM and 0.95 µM | < 1 | > 50 | > 50 | 0.79 ± 0.39 | 0.65 ± 0.05 | no inhibitory effect | No significant differences in body weight changes | most susceptible to CAPCA-1 |  | 
NC(=O)c1ncn([C@@H]2O[C@H](CO)[C@@H](O)[C@H]2O)n1 [RBV, Ribavirin, reference compound] |  |  |  |  |  | > 100 | 82.1 ± 28.4 | 121 ± 7.61 |  |  |  |  |  | > 100 | 
NC(=O)c1nc(F)c[nH]c1=O [T-705, favipiravir, reference compound] |  |  |  |  |  | > 100 | 117 ± 24.7 | > 200 | 43.8 ± 11.5 |  | no inhibitory effect |  |  | 33.9 ± 5.29 | 37.8 ± 3.96
